The test concerns the target T1, Eukaryotic elongation factor 2 kinase (Homo sapiens, UniProt O00418).
T1 sequence (O00418 whole entry): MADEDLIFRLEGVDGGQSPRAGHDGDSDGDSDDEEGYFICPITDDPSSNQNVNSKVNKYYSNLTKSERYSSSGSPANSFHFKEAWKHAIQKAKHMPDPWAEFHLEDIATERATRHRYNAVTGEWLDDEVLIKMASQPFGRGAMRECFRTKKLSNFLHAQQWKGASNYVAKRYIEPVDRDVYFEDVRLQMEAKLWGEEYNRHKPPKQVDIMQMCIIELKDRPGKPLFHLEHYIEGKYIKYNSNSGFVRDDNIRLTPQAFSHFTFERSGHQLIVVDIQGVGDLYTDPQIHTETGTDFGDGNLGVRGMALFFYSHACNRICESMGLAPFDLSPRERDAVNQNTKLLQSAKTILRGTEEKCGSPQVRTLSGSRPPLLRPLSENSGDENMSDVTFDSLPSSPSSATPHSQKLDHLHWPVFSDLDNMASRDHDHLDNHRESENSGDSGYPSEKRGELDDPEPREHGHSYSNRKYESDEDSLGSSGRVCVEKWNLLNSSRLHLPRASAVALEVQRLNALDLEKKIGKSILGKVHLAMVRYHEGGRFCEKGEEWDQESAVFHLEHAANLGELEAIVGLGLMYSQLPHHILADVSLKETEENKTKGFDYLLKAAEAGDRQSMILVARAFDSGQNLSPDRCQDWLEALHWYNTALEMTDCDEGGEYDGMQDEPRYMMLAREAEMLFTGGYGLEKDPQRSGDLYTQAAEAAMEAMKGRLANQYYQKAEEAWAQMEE
The test can be described thus: Kinase assay. On the procedure:
WT eEF-2K (2 nM) was preincubated with various concentrations of inhibitors (0-1000 uM) in assay buffer containing CaCl2 (150 uM), calmodulin (1 uM), triton X-100 (0.01%), and peptide substrate (50 uM) for 60 min. The reactions were started by addition of [gamma-P32]-ATP (100 uM, specific activity = 1000 cpm/pmol).
Take `N#CC1C(=O)NC(=O)C(C#N)C1c1ccc(Cl)c(Cl)c1` (stereo unspecified) [4-(3,4-dichlorophenyl)-2,6-dioxopiperidine-3,5-dicarbonitrile (2)]: the IC50 amounted to 30 µM.

`COc1cccc(C2C(C#N)C(=O)NC(=O)C2C#N)c1` (stereo unspecified) [4-(3-methoxyphenyl)-2,6-dioxo-3,5-piperidinedicarbonitrile (MDP)] showed an IC50 of 25 µM.

In turn, `N#CC1C(=O)NC(=O)C(C#N)C1c1c(Cl)cccc1Cl` (stereo unspecified) [4‐(2,6‐dichlorophenyl)‐2,6‐dioxopiperidine‐3,5‐ dicarbonitrile (5)] returned an IC50 of 57 µM.

`Cc1ccccc1C1C(C#N)C(=O)NC(=O)C1C#N` (stereo unspecified) [4‐(2‐methylphenyl)‐2,6‐dioxopiperidine‐3,5‐ dicarbonitrile (1)] yielded an IC50 of 33 µM. This IC50 is about 1.7-fold lower than that of the compound before.

`N#CC1C(=O)NC(=O)C(C#N)C1c1cccc(O)c1` (stereo unspecified) [4‐(3‐hydroxyphenyl)‐2,6‐dioxopiperidine‐3,5‐ dicarbonitrile (4)] had an IC50 of 66 µM.

Regarding `Cc1ccc(C2C(C#N)C(=O)NC(=O)C2C#N)cc1` (stereo unspecified) [4‐(4‐methylphenyl)‐2,6‐dioxopiperidine‐3,5‐ dicarbonitrile (3)], the 50% inhibitory concentration (IC50) amounted to 46 µM.

A word on the IC50: it is the midpoint of a concentration-inhibition curve. The low end stands for inhibition by little substance, the high end for a need for much substance.

The record behind these values is BindingDB's records for doi:10.1002/cbic.201402321 (The University of Texas At Austin, 2014).
